≈ marks a conversion by molar mass, not a printed value. Read-outs that look alike come from different tables or passages of the source.
What was measured:
Streptococcus Group 9960 = assay: MIC, standard agar-dilution assay, Streptococcus Group 9960; type: cell-based; details: Streptococcus Group 9960, agar dilution
[1] = test system: Staphylococcus aureus X1.1; assay: MIC, standard agar-dilution assay, Staphylococcus aureus X1.1; type: cell-based
Mycoplasma gallisepticum = assay: MIC, broth-dilution microtiter test, Mycoplasma gallisepticum; type: cell-based
Description: (§1) The MIC's in Table X were obtained using conventional broth-dilution microtiter tests.

[2] = test system: Pasteurella multocida 17E; assay: MIC, broth-dilution microtiter test, Pasteurella multocida 17E; type: cell-based; details: Pasteurella multocida 17E, bovine isolate, broth-dilution microtiter
Description: as §1

[3] = test system: Staphylococcus aureus S13E; assay: MIC, standard agar-dilution assay, Staphylococcus aureus S13E; type: cell-based
Staphylococcus aureus = assay: MIC, broth-dilution microtiter test, Staphylococcus aureus; type: cell-based
Description: as §1

[4] = test system: Staphylococcus epidermidis EPI1; assay: MIC, standard agar-dilution assay, Staphylococcus epidermidis EPI1; type: cell-based
[5] = test system: Staphylococcus aureus X400; assay: MIC, standard agar-dilution assay, Staphylococcus aureus X400; type: cell-based
[6] = test system: Haemophilus influenzae Holt; assay: MIC, standard agar-dilution assay, Haemophilus influenzae Holt; type: cell-based; details: Haemophilus influenzae Holt, ampicillin-sensitive strain
[7] = test system: Streptococcus Group D X66; assay: MIC, standard agar-dilution assay, Streptococcus Group D X66; type: cell-based
[8] = test system: Pasteurella hemolytica 22C; assay: MIC, broth-dilution microtiter test, Pasteurella hemolytica 22C; type: cell-based; details: Pasteurella hemolytica 22C, broth-dilution microtiter
Description: as §1

[9] = test system: Haemophilus influenzae R252; assay: MIC, standard agar-dilution assay, Haemophilus influenzae R252; type: cell-based; details: Haemophilus influenzae R252, ampicillin-resistant strain
[10] = test system: Pasteurella multocida 60A; assay: MIC, broth-dilution microtiter test, Pasteurella multocida 60A; type: cell-based; details: Pasteurella multocida 60A, avian isolate, broth-dilution microtiter
Description: as §1

Mycoplasma hyorhinis = assay: MIC, broth-dilution microtiter test, Mycoplasma hyorhinis; type: cell-based
Description: as §1

[11] = test system: Streptococcus pyogenes C203; assay: In vivo protection of mice experimentally infected with S. pyogenes C203; details: Streptococcus pyogenes, mice, doses given 1 and 4 hours post-infection
Experimental: The C-20 modified derivatives of this invention have shown in vivo antimicrobial activity against experimentally-induced infections in laboratory animals. When two doses of test compound were administered to mice experimentally infected with S. pyogenes C203, the activity observed was measured as an ED50 value [effective dose in mg/kg to protect 50% of the test animals: see Warren Wick, et al., J. Bacteriol. 81, 233-235 (1961)].

[12] = test system: Staphylococcus aureus V41; assay: MIC, standard agar-dilution assay, Staphylococcus aureus V41; type: cell-based
Streptococcus bovis 80 = assay: MIC, broth-dilution microtiter test, Streptococcus bovis 80; type: cell-based; details: Streptococcus bovis 80, broth-dilution microtiter
Description: as §1

[13] = test system: Streptococcus pyogenes C203; assay: MIC, standard agar-dilution assay, Streptococcus pyogenes C203; type: cell-based
[14] = test system: Streptococcus pneumoniae Park I; assay: microbe, parasite or virus in culture; type: cell-based
[15] = test system: Staphylococcus epidermidis EPI2; assay: MIC, standard agar-dilution assay, Staphylococcus epidermidis EPI2; type: cell-based; details: Staphylococcus epidermidis EPI2, agar dilution
[16] = Staphylococcus epidermidis, EPI1
[17] = Streptococcus Group D X66, agar dilution, read-out: MIC
[18] = C203, sc, subcutaneous, read-out: ED50, Subcutaneous
[19] = C203, oral, read-out: ED50, Oral
[20] = Streptococcus equinus, read-out: MIC
[21] = Streptococcus pyogenes C203, agar dilution, read-out: MIC
[22] = Staphylococcus aureus X1.1, agar dilution
[23] = Staphylococcus aureus S13E, agar dilution
[24] = Staphylococcus epidermidis EPI1, agar dilution
[25] = Staphylococcus aureus X400, methicillin-resistant strain, agar dilution
[26] = Streptococcus Group D X66, agar dilution
[27] = Staphylococcus aureus V41, penicillin-resistant strain, agar dilution
[28] = Streptococcus pyogenes C203, agar dilution

Structure (SMILES) | MIC (Streptococcus Group 9960; GROUP9960, read-out: MIC) [µg/mL] | MIC ([1]; Staphylococcus aureus, X1.1) [µg/mL] | MIC (Mycoplasma gallisepticum; Mycoplasmoides gallisepticum) [µg/mL] | MIC ([2]; read-out: MIC) [µg/mL] | MIC ([3]; Staphylococcus aureus, S13E) [µg/mL] | MIC [4, 16] [µg/mL] | MIC ([6]; read-out: MIC) [µg/mL] | MIC [7, 17] [µg/mL] | MIC ([8]; read-out: MIC) [µg/mL] | MIC ([9]; read-out: MIC) [µg/mL] | MIC ([10]; read-out: MIC) [µg/mL] | MIC (Mycoplasma hyorhinis; Mycoplasma) [µg/mL] | ED50 [11, 18] [mg/kg] | ED50 [11, 19] [mg/kg] | MIC ([12]; Staphylococcus aureus, V41) [µg/mL] | MIC (Streptococcus bovis 80; [20]) [µg/mL] | MIC [13, 21] [µg/mL] | MIC ([5]; Staphylococcus aureus, X400) [µg/mL] | MIC (Streptococcus Group 9960) | MIC [1, 22] [µg/mL] | also measured
CCC1OC(=O)CC(O)C(C)C(OC2OC(C)C(OC3CC(C)(O)C(O)C(C)O3)C(N(C)C)C2O)C(CCOc2ccccc2)CC(C)C(=O)C=CC(C)=CC1COC1OC(C)C(O)C(OC)C1OC (stereo not drawn) [Compound 4, 20-DH-20-O-Phenyltylosin] | 128 (≈ 129 µM) | 1 (≈ 1.01 µM) | 1.56 (≈ 1.57 µM) | > 50 | 1 (≈ 1.01 µM) | 1 (≈ 1.01 µM) | > 128 | 128 (≈ 129 µM) | > 50 | > 128 | > 50 | 50 (≈ 50.3 µM) | > 6.3 | 35 | 1 (≈ 1.01 µM) | 12.5 (≈ 12.6 µM) | 2 (≈ 2.01 µM) |  |  |  | MIC (Staphylococcus aureus; broth-dilution microtiter, read-out: MIC): 3.12 µg/mL (≈ 3.14 µM); MIC ([5]; Staphylococcus aureus X400, methicillin-resistant strain, agar dilution, read-out: MIC): 2 µg/mL (≈ 2.01 µM)
CCC1OC(=O)CC(O)C(C)C(OC2OC(C)C(OC3CC(C)(O)C(O)C(C)O3)C(N(C)C)C2O)C(CCCl)CC(C)C(=O)C=CC(C)=CC1COC1OC(C)C(O)C(OC)C1OC (stereo not drawn) [Compound 7, 20-DH-DO-20-Chlorotylosin] | > 128 | 1 (≈ 1.07 µM) | 0.78 (≈ 0.833 µM) | > 50 | 1 (≈ 1.07 µM) | 1 (≈ 1.07 µM) | > 128 |  | > 50 | > 128 | > 50 | 50 (≈ 53.4 µM) | > 6.3 | 11 | 1 (≈ 1.07 µM) | 12.5 (≈ 13.3 µM) | 2 (≈ 2.14 µM) | 2 (≈ 2.14 µM) |  |  | MIC (Staphylococcus aureus): 3.12 µg/mL (≈ 3.33 µM); MIC [7]: > 128 µg/mL; MIC ([14]; Streptococcus pneumoniae Park I, agar dilution, read-out: MIC): 32 µg/mL (≈ 34.2 µM)
CCC1OC(=O)CC(O)C(C)C(OC2OC(C)C(O)C(N(C)C)C2O)C(CCOCCc2ccccc2)CC(C)C(=O)C=CC(C)=CC1COC1OC(C)C(O)C(OC)C1OC (stereo not drawn) [Compound 31, 20-DH-20-O-(Phenethyl)desmycosin] | 16 (≈ 18.2 µM) | 0.25 (≈ 0.285 µM) |  |  | 0.25 (≈ 0.285 µM) | 0.25 (≈ 0.285 µM) |  | 8 (≈ 9.11 µM) |  |  |  |  |  |  | 0.25 (≈ 0.285 µM) |  |  | 0.5 (≈ 0.569 µM) |  |  | MIC ([15]; read-out: MIC): 0.12 µg/mL (≈ 0.137 µM); MIC ([14]; Streptococcus pneumoniae): 0.25 µg/mL (≈ 0.285 µM); MIC ([13]; Streptococcus pyogenes, C203): 1 µg/mL (≈ 1.14 µM)
CCC1OC(=O)CC(O)C(C)C(OC2OC(C)C(O)C(N(C)C)C2O)C(CCOc2ccc(CO)cc2)CC(C)C(=O)C=CC(C)=CC1COC1OC(C)C(O)C(OC)C1OC (stereo not drawn) [Compound 51a] |  |  |  |  |  |  |  |  |  |  |  |  |  |  |  |  |  |  | 16 µg/mL (≈ 18.2 µM) | 0.5 (≈ 0.568 µM) | MIC [3, 23]: 0.5 µg/mL (≈ 0.568 µM); MIC [4, 24]: 0.5 µg/mL (≈ 0.568 µM); MIC [5, 25]: 1 µg/mL (≈ 1.14 µM); MIC ([6]; agar dilution): 64 µg/mL (≈ 72.7 µM); MIC [7, 26]: 16 µg/mL (≈ 18.2 µM); MIC [15]: 0.25 µg/mL (≈ 0.284 µM); MIC ([9]; agar dilution): 32 µg/mL (≈ 36.4 µM); MIC [12, 27]: 0.5 µg/mL (≈ 0.568 µM); MIC [13, 28]: 0.5 µg/mL (≈ 0.568 µM)
CCC1OC(=O)CC(O)C(C)C(OC2OC(C)C(OC3CC(C)(O)C(O)C(C)O3)C(N(C)C)C2OC(C)=O)C(CCOc2ccccc2)CC(C)C(=O)C=CC(C)=CC1COC1OC(C)C(O)C(OC)C1OC (stereo not drawn) [Compound 64, 20-DH-20-O-Phenyl-2'-O-acetyltylosin] |  |  |  |  |  |  |  |  |  |  |  |  |  |  |  |  |  |  | -- (Not active at 128 mcg/ml, the highest level tested) | 2 (≈ 1.93 µM) | MIC (Mycoplasma gallisepticum; Mycoplasma gallisepticum, broth-dilution microtiter): 1.56 µg/mL (≈ 1.51 µM); MIC [2]: -- (Not active at 50 mcg/ml, the highest level tested); MIC [3, 23]: 2 µg/mL (≈ 1.93 µM); MIC (Staphylococcus aureus; broth-dilution microtiter): 3.12 µg/mL (≈ 3.01 µM); MIC [4, 24]: 2 µg/mL (≈ 1.93 µM); MIC [5, 25]: 4 µg/mL (≈ 3.86 µM); MIC ([6]; agar dilution): -- (Not active at 128 mcg/ml, the highest level tested); MIC [7, 26]: -- (Not active at 128 mcg/ml, the highest level tested); MIC [8]: -- (Not active at 50 mcg/ml, the highest level tested); MIC [15]: 2 µg/mL (≈ 1.93 µM); MIC ([9]; agar dilution): -- (Not active at 128 mcg/ml, the highest level tested); MIC [10]: -- (Not active at 50 mcg/ml, the highest level tested); MIC (Mycoplasma hyorhinis; Mycoplasma hyorhinis, broth-dilution microtiter): 50 µg/mL (≈ 48.3 µM); MIC [12, 27]: 2 µg/mL (≈ 1.93 µM); MIC (Streptococcus bovis 80): 12.5 µg/mL (≈ 12.1 µM); MIC [13, 28]: 2 µg/mL (≈ 1.93 µM)
